# Measured values published in paper PMC2774722 (Clinical cancer research : an official journal of the …, 2009).
# Where “and” joins values, the source holds several entries; their conditions need not be identical. Equal values may be shown once. Read-outs that look alike come from different tables or passages of the source.
# Key:
# Abcb1 [1] = conditions: mice lacking ABCB1; ref [42]; cited from earlier work
# CYP3a = conditions: CYP3a-/- knockout mice; ref [43]; cited from earlier work
# ABCC4 [2] = biological target: T1, ABCC4 (Homo sapiens, UniProt O15439); assay: Inhibition of ABCC4-mediated PMEA efflux in Saos-2 cells; type: cell-based; conditions: for Inhibition of PMEA efflux: 20 μM sorafenib or sunitinib, or 50 μM MK571, 4 h, cells overexpressing ABCC4
# T1 sequence (O15439 1-1325): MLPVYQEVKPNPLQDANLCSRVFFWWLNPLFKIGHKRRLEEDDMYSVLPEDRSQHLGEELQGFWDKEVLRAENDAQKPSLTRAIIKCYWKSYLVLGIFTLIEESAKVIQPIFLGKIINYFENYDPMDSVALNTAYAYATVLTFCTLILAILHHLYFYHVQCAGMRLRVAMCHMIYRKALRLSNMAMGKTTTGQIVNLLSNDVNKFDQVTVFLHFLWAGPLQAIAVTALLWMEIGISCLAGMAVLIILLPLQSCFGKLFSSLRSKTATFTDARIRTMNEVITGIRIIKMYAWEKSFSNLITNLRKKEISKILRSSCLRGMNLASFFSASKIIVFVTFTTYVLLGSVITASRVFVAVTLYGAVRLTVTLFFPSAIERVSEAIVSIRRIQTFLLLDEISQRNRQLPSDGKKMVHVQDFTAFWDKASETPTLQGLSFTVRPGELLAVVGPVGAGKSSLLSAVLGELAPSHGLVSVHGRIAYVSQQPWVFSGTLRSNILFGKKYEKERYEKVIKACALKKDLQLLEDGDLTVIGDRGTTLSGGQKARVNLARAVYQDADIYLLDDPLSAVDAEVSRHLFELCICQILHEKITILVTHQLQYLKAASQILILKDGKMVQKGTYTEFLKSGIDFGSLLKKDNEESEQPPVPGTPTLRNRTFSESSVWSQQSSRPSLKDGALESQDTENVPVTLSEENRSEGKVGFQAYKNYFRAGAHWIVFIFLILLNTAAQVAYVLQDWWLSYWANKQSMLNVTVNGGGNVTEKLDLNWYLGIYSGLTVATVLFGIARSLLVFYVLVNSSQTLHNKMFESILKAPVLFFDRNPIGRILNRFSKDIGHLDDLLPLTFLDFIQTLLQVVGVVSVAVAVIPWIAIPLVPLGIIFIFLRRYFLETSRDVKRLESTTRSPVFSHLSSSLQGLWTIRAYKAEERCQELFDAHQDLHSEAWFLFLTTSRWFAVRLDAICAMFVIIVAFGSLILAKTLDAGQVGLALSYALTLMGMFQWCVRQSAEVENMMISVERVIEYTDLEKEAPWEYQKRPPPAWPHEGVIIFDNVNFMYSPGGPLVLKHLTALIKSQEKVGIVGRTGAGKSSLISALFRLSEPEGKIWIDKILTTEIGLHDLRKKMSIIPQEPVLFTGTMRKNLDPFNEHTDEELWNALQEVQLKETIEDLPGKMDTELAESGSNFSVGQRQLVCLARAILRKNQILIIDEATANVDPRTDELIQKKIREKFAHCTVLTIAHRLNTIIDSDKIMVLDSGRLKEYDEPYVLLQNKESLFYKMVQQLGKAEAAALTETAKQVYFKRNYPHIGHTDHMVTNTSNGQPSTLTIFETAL
# ABCC2 [3] = biological target: T2, ABCC2 (Homo sapiens, UniProt Q92887); assay: Inhibition of ABCC2-mediated docetaxel efflux; type: cell-based; conditions: for Inhibition of docetaxel efflux: 20 μM sorafenib or sunitinib, or 50 μM MK571, 5 μM docetaxel, 4 h, cells overexpressing ABCC2
# Abcb1 [4] = conditions: single oral dose, sorafenib 40 mg/kg or sunitinib 20 mg/kg
# ABCG2 [5] = biological target: ABCG2 (Homo sapiens, UniProt Q9UNQ0); conditions: 1 μM, 4 h, Saos-2 cells
# ABCC2 [6] = biological target: T2, ABCC2; assay: Vanadate sensitive ATPase assay of ABCC2 in membrane vesicles; type: biochemical; conditions: activation test, 0.14-300 μM, 10 min, concentration dependent
# Abcb1 [7] = conditions: brain concentration at 4 h / plasma AUC0-4h; oral sorafenib 40 mg/kg or sunitinib 20 mg/kg
# ABCC2 [8] = biological target: T2, ABCC2; assay: Accumulation in MDCKII cells overexpressing ABCC2; type: in vitro ADME; conditions: 1 μM, 4 h
# ABCB1 [9] = biological target: T3, ABCB1 (Homo sapiens, UniProt P08183); assay: Inhibition of calcein-AM efflux in LLC-PK1 cells expressing ABCB1; type: cell-based
# [10] = system: acute myelogenous leukemia; conditions: sorafenib with cytarabine/idarubicin, cited from earlier work
# [11] = Brain penetration and brain concentration in mice; type: in vivo
# ABCB1 [12] = biological target: T3, ABCB1; assay: Transcellular transport in LLC-PK1 cells expressing ABCB1; type: in vitro ADME; conditions: 10 μM, LLC-PK1 cells overexpressing ABCB1
# [13] = system: OATP1A2, OATP1B1, OATP1B3, OCT1, OAT2, OCTN1 and OCTN2; conditions: oocytes or HEK293 cells; sorafenib 0.35-1.5 μM or sunitinib 0.15-0.45 μM, 1 h
# ABCC4 [14] = biological target: T1, ABCC4; assay: Accumulation in Saos-2 cells overexpressing ABCC4; type: in vitro ADME; conditions: 1 μM, 4 h
# [15] = ref [39], cited from earlier work
# [16] = wild-type murine models, cited from earlier work
# ABCG2 [17] = conditions: ref [38]; cited from earlier work
# ABCB1 [18] = conditions: ref [38]; cited from earlier work
# OCTN2 = biological target: T4, OCTN2 (Homo sapiens, UniProt O76082); assay: Uptake in HEK293 cells overexpressing OCTN2; type: in vitro ADME; conditions: HEK293 cells expressing OCTN2, 1 h
# T4 sequence (O76082 1-557): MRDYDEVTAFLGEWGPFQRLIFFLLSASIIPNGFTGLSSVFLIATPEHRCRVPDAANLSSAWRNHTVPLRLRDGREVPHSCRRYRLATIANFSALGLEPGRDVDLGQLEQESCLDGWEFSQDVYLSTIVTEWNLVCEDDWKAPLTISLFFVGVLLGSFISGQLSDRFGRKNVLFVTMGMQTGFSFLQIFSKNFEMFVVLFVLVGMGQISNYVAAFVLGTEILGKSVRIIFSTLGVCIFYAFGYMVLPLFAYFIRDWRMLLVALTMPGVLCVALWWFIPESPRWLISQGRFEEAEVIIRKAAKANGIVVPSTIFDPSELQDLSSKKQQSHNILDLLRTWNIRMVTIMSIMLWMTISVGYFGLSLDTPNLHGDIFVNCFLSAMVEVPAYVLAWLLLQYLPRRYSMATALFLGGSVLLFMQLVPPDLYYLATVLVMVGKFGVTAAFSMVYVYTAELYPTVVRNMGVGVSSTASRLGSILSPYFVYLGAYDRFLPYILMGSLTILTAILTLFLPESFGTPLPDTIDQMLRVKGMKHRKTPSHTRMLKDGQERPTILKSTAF
# ABCB1 or ABCC2 = conditions: mice lacking one or both transporters (ABCB1, ABCC2); ref [40]; cited from earlier work
# Abcb1 and Abcg2 = conditions: mice lacking both Abcb1 and Abcg2; ref [6], [44]; cited from earlier work
# Abcb1 [19] = conditions: Abcb1 knockout mice; ref [6], [44]; cited from earlier work
# [20] = 38 patients with newly diagnosed AML
# T3 sequence (P08183 whole entry): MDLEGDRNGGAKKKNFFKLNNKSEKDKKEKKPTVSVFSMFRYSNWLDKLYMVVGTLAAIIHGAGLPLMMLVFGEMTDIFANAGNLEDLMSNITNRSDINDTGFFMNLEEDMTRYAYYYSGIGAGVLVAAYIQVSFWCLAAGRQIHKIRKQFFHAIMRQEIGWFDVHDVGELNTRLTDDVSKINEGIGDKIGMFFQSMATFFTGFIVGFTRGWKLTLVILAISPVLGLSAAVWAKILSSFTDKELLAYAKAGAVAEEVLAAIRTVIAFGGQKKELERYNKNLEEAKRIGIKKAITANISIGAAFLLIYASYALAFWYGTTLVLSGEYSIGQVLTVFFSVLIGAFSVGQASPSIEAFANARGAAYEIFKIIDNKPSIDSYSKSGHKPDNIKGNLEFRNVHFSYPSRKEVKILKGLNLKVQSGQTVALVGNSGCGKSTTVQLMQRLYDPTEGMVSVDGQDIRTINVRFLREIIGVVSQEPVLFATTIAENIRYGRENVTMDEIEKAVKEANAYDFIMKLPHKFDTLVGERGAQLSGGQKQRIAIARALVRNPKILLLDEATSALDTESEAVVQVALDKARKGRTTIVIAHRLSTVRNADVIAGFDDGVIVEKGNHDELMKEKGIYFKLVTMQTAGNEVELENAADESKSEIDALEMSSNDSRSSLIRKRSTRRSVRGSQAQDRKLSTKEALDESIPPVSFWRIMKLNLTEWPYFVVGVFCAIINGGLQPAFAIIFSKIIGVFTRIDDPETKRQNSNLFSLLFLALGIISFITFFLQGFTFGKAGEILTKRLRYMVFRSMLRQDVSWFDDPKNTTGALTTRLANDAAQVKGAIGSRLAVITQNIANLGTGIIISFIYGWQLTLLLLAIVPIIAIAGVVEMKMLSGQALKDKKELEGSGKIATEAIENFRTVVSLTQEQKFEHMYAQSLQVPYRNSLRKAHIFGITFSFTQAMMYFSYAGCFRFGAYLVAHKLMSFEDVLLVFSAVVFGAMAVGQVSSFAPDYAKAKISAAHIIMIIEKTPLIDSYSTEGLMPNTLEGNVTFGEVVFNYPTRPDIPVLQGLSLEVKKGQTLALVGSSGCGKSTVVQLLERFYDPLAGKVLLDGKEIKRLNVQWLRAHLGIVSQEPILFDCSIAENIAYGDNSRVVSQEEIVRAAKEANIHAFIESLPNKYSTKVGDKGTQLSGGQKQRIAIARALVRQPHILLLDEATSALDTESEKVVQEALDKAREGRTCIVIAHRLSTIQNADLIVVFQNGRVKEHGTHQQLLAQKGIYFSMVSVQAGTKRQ
# T2 sequence (Q92887 whole entry): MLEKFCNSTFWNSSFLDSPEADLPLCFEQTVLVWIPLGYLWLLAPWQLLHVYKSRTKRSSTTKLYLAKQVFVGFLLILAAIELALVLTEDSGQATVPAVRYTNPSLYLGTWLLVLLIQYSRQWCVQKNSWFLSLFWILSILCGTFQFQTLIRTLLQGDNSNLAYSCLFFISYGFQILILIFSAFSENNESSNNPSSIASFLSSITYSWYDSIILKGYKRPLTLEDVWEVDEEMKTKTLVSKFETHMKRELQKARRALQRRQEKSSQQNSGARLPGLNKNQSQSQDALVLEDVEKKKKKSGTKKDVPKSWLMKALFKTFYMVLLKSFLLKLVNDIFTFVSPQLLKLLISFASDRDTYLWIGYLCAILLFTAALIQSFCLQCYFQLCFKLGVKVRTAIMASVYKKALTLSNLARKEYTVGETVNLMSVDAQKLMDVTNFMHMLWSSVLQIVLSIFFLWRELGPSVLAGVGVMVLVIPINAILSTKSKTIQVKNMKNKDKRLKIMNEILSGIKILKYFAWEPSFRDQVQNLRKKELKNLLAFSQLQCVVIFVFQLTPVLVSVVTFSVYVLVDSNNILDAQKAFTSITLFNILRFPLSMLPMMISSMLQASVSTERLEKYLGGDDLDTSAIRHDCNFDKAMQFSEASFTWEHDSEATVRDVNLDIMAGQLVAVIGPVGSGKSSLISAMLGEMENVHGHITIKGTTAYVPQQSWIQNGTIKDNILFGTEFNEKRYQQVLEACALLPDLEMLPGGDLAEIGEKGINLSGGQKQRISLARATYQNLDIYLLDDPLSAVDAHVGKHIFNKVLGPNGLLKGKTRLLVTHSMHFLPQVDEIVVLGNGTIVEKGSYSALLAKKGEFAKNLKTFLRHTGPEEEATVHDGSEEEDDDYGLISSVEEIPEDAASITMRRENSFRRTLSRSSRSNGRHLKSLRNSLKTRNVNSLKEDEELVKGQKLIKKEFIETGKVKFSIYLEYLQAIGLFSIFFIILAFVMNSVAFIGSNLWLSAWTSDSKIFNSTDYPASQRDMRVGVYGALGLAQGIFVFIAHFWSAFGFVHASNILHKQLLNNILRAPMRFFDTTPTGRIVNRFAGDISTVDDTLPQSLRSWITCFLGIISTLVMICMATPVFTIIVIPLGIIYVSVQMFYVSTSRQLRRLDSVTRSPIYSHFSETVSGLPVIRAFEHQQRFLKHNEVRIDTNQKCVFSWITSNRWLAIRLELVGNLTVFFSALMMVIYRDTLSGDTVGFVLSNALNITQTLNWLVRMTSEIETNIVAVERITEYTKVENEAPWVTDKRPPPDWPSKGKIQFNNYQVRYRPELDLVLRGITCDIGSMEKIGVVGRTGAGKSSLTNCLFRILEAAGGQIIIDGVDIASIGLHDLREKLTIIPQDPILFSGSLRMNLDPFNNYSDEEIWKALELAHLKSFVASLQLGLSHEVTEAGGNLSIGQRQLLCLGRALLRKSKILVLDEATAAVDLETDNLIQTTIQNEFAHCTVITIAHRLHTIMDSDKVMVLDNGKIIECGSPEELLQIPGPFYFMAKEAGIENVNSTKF
# Chain of ABCG2 (Homo sapiens, UniProt Q9UNQ0) (Q9UNQ0 whole entry): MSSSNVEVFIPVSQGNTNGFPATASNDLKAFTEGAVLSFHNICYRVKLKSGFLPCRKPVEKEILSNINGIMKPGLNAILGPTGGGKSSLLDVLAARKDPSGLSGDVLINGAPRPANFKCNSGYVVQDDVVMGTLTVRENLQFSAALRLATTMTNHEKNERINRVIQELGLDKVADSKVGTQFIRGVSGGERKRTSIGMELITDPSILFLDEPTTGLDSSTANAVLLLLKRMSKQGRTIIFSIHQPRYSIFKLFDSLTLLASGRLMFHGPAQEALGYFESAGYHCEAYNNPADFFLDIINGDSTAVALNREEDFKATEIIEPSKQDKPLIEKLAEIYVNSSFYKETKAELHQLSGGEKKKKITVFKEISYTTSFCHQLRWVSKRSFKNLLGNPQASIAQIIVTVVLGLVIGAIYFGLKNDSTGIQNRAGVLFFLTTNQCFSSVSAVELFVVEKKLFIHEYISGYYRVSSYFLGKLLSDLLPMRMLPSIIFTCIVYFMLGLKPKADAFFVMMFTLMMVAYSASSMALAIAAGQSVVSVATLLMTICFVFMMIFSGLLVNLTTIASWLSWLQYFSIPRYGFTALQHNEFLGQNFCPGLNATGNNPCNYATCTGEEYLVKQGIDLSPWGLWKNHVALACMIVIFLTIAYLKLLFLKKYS
structure (smiles),measurement,setting,value
CC(=O)O[C@@]12CO[C@@H]1C[C@H](O)[C@@]1(C)C(=O)[C@H](O)C3=C(C)[C@@H](OC(=O)[C@H](O)[C@@H](NC(=O)OC(C)(C)C)c4ccccc4)C[C@@](O)([C@@H](OC(=O)c4ccccc4)[C@H]21)C3(C)C [docetaxel],Plasma exposure compared to wild-type mice,Abcb1 [1],unchanged
same,Exposure compared to wild-type counterparts,CYP3a,significanty increased
CN(C)C(=O)CCSC(SCCC(=O)O)c1cccc(/C=C/c2ccc3ccc(Cl)cc3n2)c1 (stereo not drawn) [MK571],Inhibition of PMEA efflux,ABCC4 [2],~100%
same,Inhibition of docetaxel efflux,ABCC2 [3],approximately 90%
CNC(=O)c1cc(Oc2ccc(NC(=O)Nc3ccc(Cl)c(C(F)(F)F)c3)cc2)ccn1 [sorafenib],inhibition at 20 µM,"ABCC4 [2]; SAOS-2, read-out: Inhibition of PMEA efflux",~70%
same,"Plasma AUC0-4h, wild type versus Abcb1 knockout mice",Abcb1 [4],not significantly different
same,Transport by ABCG2,ABCG2 [5],not transported
same,Effect on baseline ATPase activity of ABCC2,ABCC2 [6],inhibited
same,Increase in brain penetration in knockout animals versus controls,Abcb1 [7],1.9 fold
same,Transport by ABCC2,ABCC2 [8],not transported
same,inhibition at 20 µM,ABCC2 [3]; read-out: Inhibition of docetaxel efflux,~50%
same,IC50,ABCB1 [9],16.6 µM
same,Overall response rate,[10]; [20],83%
same,Patients achieving a complete response,[10]; [20],70%
same,Probability of survival,[10]; at 9 months follow-up,82%
same,Remission duration,[10]; at 9 months follow-up,72%
same,concentration at 4 h,"[11]; FVB, mouse, brain, po, 40 mg/kg",~300 ng/mL and 645 nM
same,Brain penetration,"[11]; wild-type mice, brain concentration at 4 h / plasma AUC0-4h, oral sorafenib 40 mg/kg or sunitinib 20 mg/kg",3%
same,Transport by ABCB1,ABCB1 [12],not transported
same,Transport (uptake) by solute carriers compared to control,[13],none of the transporters tested facilitated
same,Transport by ABCC4,ABCC4 [14],not transported
CCc1c2c(nc3ccc(OC(=O)N4CCC(N5CCCCC5)CC4)cc13)-c1cc3c(c(=O)n1C2)COC(=O)[C@]3(O)CC [irinotecan],Change in plasma exposure when co-administered with sorafenib,[15],minimal to no increases
Cc1nc(Nc2ncc(C(=O)Nc3c(C)cccc3Cl)s2)cc(N2CCN(CCO)CC2)n1 [dasatinib],Brain penetration,[16]; ref [45],3-8%
CCN(CC)CCNC(=O)c1c(C)[nH]c(/C=C2\C(=O)Nc3ccc(F)cc32)c1C [sunitinib],Inhibition of PMEA efflux,ABCC4 [2],~80%
same,"Plasma AUC0-4h, wild type versus Abcb1 knockout mice",Abcb1 [4],not significantly different
same,Transport by ABCG2,ABCG2 [5],not transported
same,Increase in brain penetration in knockout animals versus controls,Abcb1 [7],2.9 fold
same,Reversal of topotecan resistance mediated by ABCG2,ABCG2 [17],completely reverse
same,Inhibition of docetaxel efflux,ABCC2 [3],~80%
same,Reversal of ABCB1-mediated resistance to romidepsin,ABCB1 [18],partially reverse
same,Transport over control by OCTN2,OCTN2,130%
same,Transport by ABCB1,ABCB1 [12],substantially reduced
same,Transport (uptake) by solute carriers compared to control,[13],none of the transporters tested facilitated
COc1cccc2c1C(=O)c1c(O)c3c(c(O)c1C2=O)C[C@@](O)(C(=O)CO)C[C@@H]3O[C@H]1C[C@H](N)[C@H](O)[C@H](C)O1 [doxorubicin],Plasma exposure compared to wild-type mice,ABCB1 or ABCC2,unaltered
same,Increase in plasma exposure in combination with sorafenib,[15]; phase I trial,20-30%
CCc1c2c(nc3ccc(O)cc13)-c1cc3c(c(=O)n1C2)COC(=O)[C@]3(O)CC [SN-38],Change in plasma exposure when co-administered with sorafenib,[15],minimal to no increases
Cc1ccc(NC(=O)c2ccc(CN3CCN(C)CC3)cc2)cc1Nc1nccc(-c2cccnc2)n1 [imatinib],Increase in brain penetration compared to wild-type mice,Abcb1 and Abcg2,12.6 fold
same,Increase in brain penetration compared to wild-type mice,Abcb1 [19],3.6 fold
same,Brain penetration,"[16]; ref [6], [44]",2-10%
